Data reported in patent publication US5484725A, “Norbornane type ester hydrolase from Acetobacter pasteurianus” (Shionogi & Co., Ltd., priority 1993, dated 1996).

Assays:
[1] = tested on: norbornane type ester hydrolase; assay: Effect of inhibitors on the enzyme (pNPA method); format: biochemical, Acetobacter pasteurianus ATCC 12873; settings: 5 mM inhibitor, phosphate buffer pH 7.0, 30° C., 2 hours, then pNPA method
Experimental: The present enzyme was allowed to stand in phosphate buffers respectively including various inhibitors (5 mM) at pH 7.0 for 2 hours. Then, the activity of the enzyme was measured by the method described in item 3.
The above-mentioned activity measurement was performed with regard to 0.5 ml of the enzyme solution of 0.1M phosphate buffer (pH 7.0) containing 5 mM of one of the following inhibitors: ethylenediaminetetraacetic acid (EDTA), phenylmethylsulfonylfluoride (PMSF), N-tosyl-L-phenylalanyl chloromethyl ketone (TPCK), N-tosyl-L-lysyl chloromethyl ketone (TLCK), diisopropyl fluorophosphate (DFP), N-ethylmaleimide and iodoacetic acid. The enzyme solutions, including the respective inhibitors, were allowed to stand at 30° C. for 2 hours.

[2] = tested on: norbornane type ester hydrolase; assay: Optically selective hydrolysis of (±)-exo-norbornane type esters by purified enzyme, optical resolution GC; format: biochemical, Acetobacter pasteurianus ATCC 12873; settings: 1% ester, 30° C., 30 minutes
Experimental: Various kinds of the (±)-exo-norbornane type esters respectively comprising formyl, acetyl, propionyl, n-butyryl or isobutyryl as the acyl R in formula I were allowed to come in contact with an enzyme solution, respectively as a substrate. Each of the obtained products was extracted with an equal volume of chloroform. The extract was analyzed by gas chromatography using a column for optical resolution (produced by J & W Scientific). (-)-Norborneol was selectively produced in all the extracts. […] In detail, referring to FIG. 1, (+)-(1S, 2S, 4R)-exo-norbornyl acetate is hydrolysed to the corresponding (-)-norborneol by the use of the present enzyme. The obtained (-)-norborneol can be converted to (+)-d-norcamphor by oxidation. The remaining (-)-(1R, 2R, 4S)-exo-norbornyl acetate can be hydrolysed to the corresponding (+)-norborneol by the use of an alkali. The obtained (+)-norborneol can be converted to (-)-d-norcamphor by oxidation.
The purified enzyme obtained in Example 1 was allowed to come in contact with various kinds of 1% (±)-exo-norbornane type esters respectively including formyl, acetyl, propionyl, n-butyryl and isobutyryl as the acyl R in formula I. The reaction was conducted at 30° C. for 30 minutes. The resultant was extracted with an equal volume of chloroform. The extract was analyzed by gas chromatography using a column for optical resolution (produced by J & W Scientific). As is apparent from the results shown in Table 2, (-)-norborneol was enantio-selectively produced from any of the esters.

[3] = tested on: E. coli JM109 transformed by using the plasmid pUNA-Hf; assay: Hydrolysis of (±)-exo-norbornyl acetate by transformant E. coli JM109 with pUNA-Hf; format: cell-based; settings: 1% substrate, 30° C., 10 minutes
Experimental: E. coli JM109 was transformed by using the plasmid pUNA-Hf. […] Then, the transformant was mixed with a 1% (±)-exo-norbornyl acetate mixture and allowed to stand at 30° C. for 10 minutes. The resulting mixture was analyzed by the method described in item 5 of Example 2. […] Thus, the optical selectivity was confirmed to be as high as that of the enzyme derived from Acetobacter pasteurianus obtained in Example 1.

[4] = tested on: E. coli JM103 including the plasmid pUNA-Hf; assay: Optically selective deacetylation of exo-norbornyl acetate by E. coli JM103/pUNA-Hf cell suspension; format: cell-based; settings: 1% substrate, 30° C., 15 minutes
Experimental: (±)-Exo-norbornyl acetate used as a substrate was optically selectively deacetylated by E. coli JM103 including the plasmid pUNA-Hf as follows. The bacterial cells were collected from the cultured broth of E. coli JM103/pUNA-Hf as mentioned above by centrifugation, and suspended in an equal volume of a 0.1M phosphate buffer (pH 7.0). Then, 1% (±)-exo-norbornyl acetate was added to 1.5 ml of the obtained suspension, and the reaction was conducted at 30° C. for 15 minutes. The resultant reaction mixture was analyzed by the method described in item 5 of Example 2.

SMILES | inhibition of the enzyme by inhibitor [1] | Produced norborneol (+)-isomer [2] [mg/mL] | Produced norborneol (-)-isomer [2] [mg/mL] | (+)-exo-norborneol produced [3] [mg/mL] | (-)-exo-norborneol produced [3] [mg/mL] | (+)-exo-norborneol produced [4] [mg/mL] | (-)-exo-norborneol produced [4] [mg/mL]
O=S(=O)(F)Cc1ccccc1 [PMSF, phenylmethylsulfonylfluoride] | completely inhibited |  |  |  |  |  | 
O=CO[C@H]1C[C@@H]2CC[C@H]1C2 (relative stereo) [Formyl] |  | 0.15 | 1.49 |  |  |  | 
CC(=O)O[C@H]1C[C@@H]2CC[C@H]1C2 (relative stereo) [Acetyl, (±)-exo-norbornyl acetate] |  | 0.19 | 2.48 | 0.15 | 1.68 | 0.15 | 1.91
CC(C)C(=O)O[C@H]1C[C@@H]2CC[C@H]1C2 (relative stereo) [isobutyryl] |  | 0.69 | 2.76 |  |  |  | 
CCC(=O)O[C@H]1C[C@@H]2CC[C@H]1C2 (relative stereo) [Propionyl] |  | 0.45 | 3.39 |  |  |  | 
CCCC(=O)O[C@H]1C[C@@H]2CC[C@H]1C2 (relative stereo) [n-butyryl] |  | 0.29 | 2.30 |  |  |  | 
